Where only a bound is given, the exact number is not on record here.

One test has as its target human kinase Mps-1 (Homo sapiens (Human), UniProt P33981). The test can be described thus: Mps-1 kinase assay (TR-FRET). The conditions noted are these: 10 μM ATP; read-out: Mps1 avg (IC50 [mol/l]). In kind it is biochemical. On the procedure: The human kinase Mps-1 phosphorylates a biotinylated substrate peptide. Detection of the phosphorylated product is achieved by time-resolved fluorescence resonance energy transfer (TR-FRET) from Europium-labelled anti-phospho-Serine/Threonine antibody as donor to streptavidin labelled with cross-linked allophycocyanin (SA-XLent) as acceptor. Compounds are tested for their inhibition of the kinase activity.
N-terminally GST-tagged human full length recombinant Mps-1 kinase (purchased from Invitrogen, Karslruhe, Germany, cat. no PV4071) was used. As substrate for the kinase reaction a biotinylated peptide of the amino-acid sequence biotin-Ahx-PWDPDDADITEILG (C-terminus in amide form, purchased from Biosyntan GmbH, Berlin) was used.
For the assay 50 nl of a 100-fold concentrated solution of the test compound in DMSO was pipetted into a black low volume 384 well microtiter plate (Greiner Bio-One, Frickenhausen, Germany), 2 μl of a solution of Mps-1 in assay buffer [0.1 mM sodium-ortho-vanadate, 10 mM MgCl2, 2 mM DTT, 25 mM Hepes pH 7.7, 0.05% BSA (w/v), 0.001% Pluronic F-127] were added and the mixture was incubated for 15 min at 22° C. to allow pre-binding of the test compounds to Mps-1 before the start of the kinase reaction. Then the kinase reaction was started by the addition of 3 μl of a solution of 16.7 μM adenosine-tri-phosphate (ATP, 16.7 μM=>final conc. in the 5 μl assay volume is 10 μM) and peptide substrate (1.67 μM=>final conc. in the 5 μl assay volume is 1 μM) in assay buffer and the resulting mixture was incubated for a reaction time of 60 min at 22° C. The concentration of Mps-1 in the assay was adjusted to the activity of the enzyme lot and was chosen appropriate to have the assay in the linear range, typical enzyme concentrations were in the range of about 0.5 nM (final conc. in the 5 μl assay volume). The reaction was stopped by the addition of 5 μl of a solution of TR-FRET detection reagents (100 mM Hepes pH 7.4, 0.1% BSA, 40 mM EDTA, 140 nM Streptavidin-XLent [#61GSTXLB, Fa. Cis Biointernational, Marcoule, France], 1.5 nM anti-phospho(Ser/Thr)-Europium-antibody [#AD0180, PerkinElmer LAS, Rodgau-Jugesheim, Germany]. Instead of the 1.5 nM anti-phospho(Ser/Thr)-Europium-antibody a mixture of 2 nM unlabeled anti-phospho ser/thr-pro antibody MPM-2 [Millipore cat. #05-368] and 1 nM LANCE EU-W1024 labeled anti-mouse IgG antibody [Perkin-Elmer, product no. AD0077] can be used).
The resulting mixture was incubated 1 h at 22° C. to allow the binding of the phosphorylated peptide to the anti-phospho(Ser/Thr)-Europium-antibody. Subsequently the amount of phosphorylated substrate was evaluated by measurement of the resonance energy transfer from the Europium-labelled anti-phospho(Ser/Thr) antibody to the Streptavidin-XLent. Therefore, the fluorescence emissions at 620 nm and 665 nm after excitation at 350 nm was measured in a Viewlux TR-FRET reader (PerkinElmer LAS, Rodgau-Jugesheim, Germany). The “blank-corrected normalized ratio” (a Viewlux specific readout, similar to the traditional ratio of the emissions at 665 nm and at 622 nm, in which blank and Eu-donor crosstalk are subtracted from the 665 nm signal before the ratio is calculated) was taken as the measure for the amount of phosphorylated substrate. The data were normalised (enzyme reaction without inhibitor=0% inhibition, all other assay components but no enzyme=100% inhibition).

The subject of test [1] is spindle assembly checkpoint. The test can be described thus: SAC-Formation - Nocodazole-Induced Assay. In kind it is cell-based. The conditions noted are these: Homo sapiens; HeLa cells, nocodazole 0.1 μg/ml, 24 h, phosphorylated histone H3 on serine 10. The source says:
The spindle assembly checkpoint assures the proper segregation of chromosomes during mitosis. Upon entry into mitosis, chromosomes begin to condensate which is accompanied by the phosphorylation of histone H3 on serine 10. Dephosphorylation of histone H3 on serine 10 begins in anaphase and ends at early telophase. Accordingly, phosphorylation of histone H3 on serine 10 can be utilized as a marker of cells in mitosis. Nocodazole is a microtubule destabilizing substance. Paclitaxel is a microtubule stabilizing compound. Thus, nocodazole as well as paclitaxel interfere with microtubule dynamics and mobilize the spindle assembly checkpoint. […] The mitotic breakthrough can be detected by the decrease of cells with phosphorylation of histone H3 on serine 10. This decline is used as a marker to determine the capability of compounds of the present invention to induce a mitotic breakthrough. The typical morphological alteration of nuclei with a prematurely completed mitosis after SAC-inhibition can be monitored via image analysis routines supporting those findings.
The nocodazole and paclitaxel variations were used to focus on compounds that are capable of inhibiting a SAC induced by both microtubule destabilization as well as microtubule stabilization. When SAC inducing agents and compounds are given simultaneously, inhibitors that effectively block the SAC during formation or abrogation are identified. When cells are incubated with a SAC inducing agent and the SAC interfering compound is given after a defined time, inhibitors are identified that effectively block SAC abrogation.
Cultivated cells of the human cervical tumor cell line HeLa (ATCC CCL-2) were plated at a density of 1000 cells/well in a 1536-well microtiter plate in 2 μl PAA Ham's F12 Medium supplemented with 1% (v/v) glutamine, 1% (v/v) penicillin, 1% (v/v) streptomycin and 10% (v/v) fetal calf serum. After incubation overnight at 37° C., 10 μl/well nocodazole at a final concentration of 0.1 μg/ml were added to cells. Test compounds solubilized in dimethyl sulfoxide (DMSO) were added at various concentrations (0 μM, as well as in the range of 0.005 μM-20 μM; the final concentration of the solvent DMSO was 0.5% (v/v)). Cells were incubated for 24 h at 37° C. in the presence of test compounds in combination with nocodazole. Thereafter, cells were fixed in 4% (v/v) paraformaldehyde in phosphate buffered saline (PBS) at 4° C. overnight then permeabilized in 0.1% (v/v) Triton X™ 100 in PBS at room temperature for 20 min and blocked in 0.5% (v/v) bovine serum albumin (BSA) in PBS at room temperature for 15 min. After washing with PBS, 5 μl/well antibody solution (anti-phospho-histone H3 clone 3H10, FITC; Millipore, Cat #16-222; 1:1000 dilution) was added to cells, which were incubated for 2 h at room temperature. Afterwards, cells were washed with PBS and 5 μl/well solution of HOECHST 33342 dye (5 μg/ml) was added to cells and cells were incubated 15 min at room temperature in the dark. Cells were washed twice with PBS then covered with PBS and stored at 4° C. until analysis. Images were acquired with a PERKIN ELMER OPERA™ High-Content Analysis reader. Images were analyzed with image analysis software MetaXpress™ from Molecular devices utilizing the Mitotic Index application module. In this assay both labels HOECHST 33342 and phosphorylated Histone H3 on serine 10 were measured. HOECHST 33342 labels the DNA and is used to count the cell number. The staining of phosphorylated Histone H3 on serine 10 determines the number of mitotic cells. […] Otherwise cells were arrested at G2/M phase of the cell cycle progression. The raw assay data were further analyzed by four-parametric hill equation using Genedata's Assay Analyzer and Condoseo software.

Sequence of human kinase Mps-1 (P33981 whole entry): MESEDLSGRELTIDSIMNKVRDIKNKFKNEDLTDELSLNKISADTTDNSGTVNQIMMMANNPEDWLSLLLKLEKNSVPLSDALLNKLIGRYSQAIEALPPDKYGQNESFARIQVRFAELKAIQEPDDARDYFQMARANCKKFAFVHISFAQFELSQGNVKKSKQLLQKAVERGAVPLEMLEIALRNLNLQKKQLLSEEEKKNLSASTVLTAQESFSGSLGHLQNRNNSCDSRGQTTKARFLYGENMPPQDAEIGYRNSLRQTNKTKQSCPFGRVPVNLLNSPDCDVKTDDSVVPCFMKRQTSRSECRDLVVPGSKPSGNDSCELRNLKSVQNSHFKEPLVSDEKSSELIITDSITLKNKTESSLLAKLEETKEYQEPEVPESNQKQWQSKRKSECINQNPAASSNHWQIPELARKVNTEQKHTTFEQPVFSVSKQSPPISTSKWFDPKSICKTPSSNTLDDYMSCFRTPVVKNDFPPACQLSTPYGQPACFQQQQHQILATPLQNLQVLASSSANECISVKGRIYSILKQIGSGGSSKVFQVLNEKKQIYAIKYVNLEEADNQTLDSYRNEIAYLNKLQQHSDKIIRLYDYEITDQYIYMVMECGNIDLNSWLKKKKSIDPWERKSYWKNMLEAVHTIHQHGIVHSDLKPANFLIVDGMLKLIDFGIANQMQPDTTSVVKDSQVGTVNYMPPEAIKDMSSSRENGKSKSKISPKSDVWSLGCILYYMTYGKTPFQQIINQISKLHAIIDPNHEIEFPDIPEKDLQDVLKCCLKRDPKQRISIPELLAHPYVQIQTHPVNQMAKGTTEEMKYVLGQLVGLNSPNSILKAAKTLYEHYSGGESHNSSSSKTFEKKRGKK

For the compound `COc1ccc(Oc2ccc(NC(=O)c3c(C)nsc3Nc3cc(C#N)ccn3)cn2)cc1` [Example 117, 5-[(4-Cyanopyridin-2-yl)amino]-N-[6-(4-methoxyphenoxy)pyridin-3-yl]-3-methyl-1,2-thiazole-4-carboxamide], the IC50 is above 20000 nM on human kinase Mps-1 and 270 nM in test [1].

Regarding `COC(=O)c1cnc(Nc2snc(C)c2C(=O)Nc2ccc(OC)nc2)cn1` [Example 32, Methyl 5-({4-[(6-methoxypyridin-3-yl)carbamoyl]-3-methyl-1,2-thiazol-5-yl}amino)-pyrazine-2-carboxylate], the IC50 on human kinase Mps-1 is above 20000 nM; in test [1], 510 nM.

On to `Cc1nsc(Nc2cnc(C(=O)N(C)C)cn2)c1C(=O)Nc1ccc(F)c(F)c1` [Example 109, 5-({4-[(3,4-Difluorophenyl)carbamoyl]-3-methyl-1,2-thiazol-5-yl}amino)-N,N-dimethylpyrazine-2-carboxamide], for which the IC50 at human kinase Mps-1 is above 20000 nM; in test [1], 1100 nM.

For `CCOC(=O)c1coc(Nc2snc(C)c2C(=O)Nc2ccc(F)c(F)c2)n1` [Example 98, Ethyl 2-({4-[(3,4-difluoro-phenyl)carbamoyl]-3-methyl-1,2-thiazol-5-yl}amino)-1,3-oxazole-4-carboxylate], the IC50 at human kinase Mps-1 turned out to be 18000 nM; in test [1] it was 3000 nM.

Regarding `CCc1ccccc1NC(=O)c1c(C)nsc1Nc1cnc2cccc(C)c2n1` [Example 33, N-(2-Ethylphenyl)-3-methyl-5-[(8-methylquinoxalin-2-yl)amino]-1,2-thiazole-4-carboxamide], the figures for the IC50 (at human kinase Mps-1; in test [1]) were above 20000 nM and 200 nM, respectively.

For `COc1ccc(NC(=O)c2c(C)nsc2Nc2cnc3ccc(F)cc3n2)cn1` [Example 44, 5-[(7-Fluoroquinoxalin-2-yl)amino]-N-(6-methoxypyridin-3-yl)-3-methyl-1,2-thiazole-4-carboxamide], the values for the IC50 (at human kinase Mps-1; in test [1]) were above 20000 nM and 200 nM, respectively.

Take `COc1ccc(NC(=O)c2c(C)nsc2Nc2cccc(C#N)n2)cn1` [Example 37, 5-[(6-Cyanopyridin-2-yl)amino]-N-(6-methoxypyridin-3-yl)-3-methyl-1,2-thiazole-4-carboxamide]: the figures for the IC50 (on human kinase Mps-1; in test [1]) were above 20000 nM and 2400 nM, respectively.

With `CCc1ccccc1NC(=O)c1c(C)nsc1Nc1nc(C)nc2sccc12` [Example 38, N-(2-Ethylphenyl)-3-methyl-5-[(2-methylthieno[2,3-d]pyrimidin-4-yl)amino]-1,2-thiazole-4-carboxamide], the IC50 on human kinase Mps-1 was above 20000 nM; in test [1], 690 nM.

In the case of `COc1ccc(NC(=O)c2c(C)nsc2Nc2cnc3ccc(Cl)cc3n2)cn1` [Example 42, 5-[(7-Chloroquinoxalin-2-yl)amino]-N-(6-methoxypyridin-3-yl)-3-methyl-1,2-thiazole-4-carboxamide], the values for the IC50 (at human kinase Mps-1; in test [1]) were above 20000 nM and 260 nM, respectively.

Regarding `Cc1nsc(Nc2nc3c(C(F)(F)F)cccc3s2)c1C(=O)Nc1ccc(F)c(F)c1` [Example 51, N-(3,4-Difluorophenyl)-3-methyl-5-{[4-(trifluoromethyl)-1,3-benzothiazol-2-yl]-amino}-1,2-thiazole-4-carboxamide], the values for the IC50 (on human kinase Mps-1; in test [1]) were above 20000 nM and 39 nM, respectively.

`Cc1nsc(Nc2cc(C#N)ccn2)c1C(=O)Nc1ccc(OC2CCCCC2)nc1` [Example 118, 5-[(4-Cyanopyridin-2-yl)amino]-N-[6-(cyclohexyloxy)pyridin-3-yl]-3-methyl-1,2-thiazole-4-carboxamide]: the results for the IC50 (on human kinase Mps-1; in test [1]) were above 20000 nM and 60 nM, respectively.

For `COc1ccc(NC(=O)c2c(C)nsc2Nc2cnc3c(F)c(F)ccc3n2)cn1` [Example 43, 5-[(5,6-Difluoroquinoxalin-2-yl)amino]-N-(6-methoxypyridin-3-yl)-3-methyl-1,2-thiazole-4-carboxamide], the IC50 on human kinase Mps-1 was above 20000 nM; in test [1], 34 nM.

On to `COc1ccc(NC(=O)c2c(C)nsc2Nc2nc3c(C(F)(F)F)cccc3s2)cn1` [Example 48, N-(6-Methoxypyridin-3-yl)-3-methyl-5-{[4-(trifluoromethyl)-1,3-benzothiazol-2-yl]-amino}-1,2-thiazole-4-carboxamide], for which the IC50 on human kinase Mps-1 is above 20000 nM; in test [1], 130 nM.

As for `CCNC(=O)c1csc(Nc2snc(C)c2C(=O)Nc2ccc(F)c(F)c2)n1` [Example 99, N-(3,4-Difluorophenyl)-5-{[4-(ethylcarbamoyl)-1,3-thiazol-2-yl]amino}-3-methyl-1,2-thiazole-4-carboxamide], the IC50 on human kinase Mps-1 is above 20000 nM; in test [1] it was 20000 nM.

Regarding `Cc1nsc(Nc2cc(C#N)ccn2)c1C(=O)Nc1ccc(Oc2ccc(F)cc2F)nc1` [Example 114, 5-[(4-Cyanopyridin-2-yl)amino]-N-[6-(2,4-difluorophenoxy)pyridin-3-yl]-3-methyl-1,2-thiazole-4-carboxamide], the IC50 in test [1] was determined as 31 nM.

Regarding `Cc1nsc(Nc2cc(C#N)ccn2)c1C(=O)Nc1ccc(Oc2ccccc2)nc1` [Example 111, 5-[(4-Cyanopyridin-2-yl)amino]-3-methyl-N-(6-phenoxypyridin-3-yl)-1,2-thiazole-4-carboxamide], the IC50 in test [1] was 200 nM.
